Measured values taken from patent US20110144345A1, “SULFOXYIMINO-SUBSTITUTED BENZOYL DERIVATIVE AND HERBICIDE” (NIPPON SODA CO., LTD., priority 2008, published 2011).

Tests used:
Scirpus juncoides = experiment: Paddy pot test, herbicidal effect on Scirpus juncoides; assay type: in vivo; design: scale not given here; details: Screening, 63 g/ha, examined after 3 weeks
Method: (§1) Plastic pots having an area of 100 cm^2 and a depth of 10 cm were filled with paddy soil which is puddled by adding water, and seeds of Echinochloa crus-galli and Scirpus juncoides were planted in the pots. After seeding, rice plants at the 2.5-leaf stage were transplanted and the pots were filled with water. The rice plants were grown in a greenhouse. […] The herbicidal effects and harmful effects on the rice plants were examined after 3 weeks. Herbicidal effects were examined according to the examination criteria described below and were represented by the herbicidal index. [table] […] [formula]

Echinochloa crus-galli = experiment: Paddy pot test, herbicidal effect on Echinochloa crus-galli; assay type: in vivo; design: scale not given here; details: Screening, 63 g/ha, applied at 1.5-leaf stage, examined after 3 weeks
Method: as §1

rice plants = experiment: Paddy pot test, harmful effects on transplanted rice plants; assay type: in vivo; design: scale not given here; details: Screening, 63 g/ha, applied at Echinochloa crus-galli 1.5-leaf stage, examined after 3 weeks
Method: as §1

| SMILES | Scripus juncoides (herbicidal index) (Scirpus juncoides) | Echinochloa crus-galli (herbicidal index) (Echinochloa crus-galli) | Rice (harmful effects on the rice plants, index) (rice plants) | melting point |
| --- | --- | --- | --- | --- |
| COC(=O)c1ccc(C(=O)c2cnn(C)c2O)c(Cl)c1N=S(C)(C)=O [Example 161] | 8 | 9 | 0 | 115 to 125 °C |
| COc1ccc(C(=O)c2cnn(C)c2[O-])c(Cl)c1N=S1(=O)CCCCC1.[Na+] [Example 115] | 8 | 10 | 0 | 224 to 226 °C |
| Cc1c(N=S2(=O)CCCCC2)cccc1C(=O)c1cnn(C)c1O [Example 191] | 7 | 6 | 0 | 166 to 168 °C |
| Cn1ncc(C(=O)c2ccc(OC(F)F)c(N=S3(=O)CCCCC3)c2Cl)c1O [Example 181] | 9 | 10 | 0 | 158 to 161 °C |
| C#CCOc1c(C(=O)c2ccc(OC)c(N=S3(=O)CCCCC3)c2Cl)cnn1C [Example 123] | 5 | 7 | 0 | 146 to 148 °C |
| COc1ccc(C(=O)c2cnn(C)c2O)c(Cl)c1N=S1(=O)CCCC1 [Example 126] | 8 | 10 | 0 | 134 to 136 °C |
| COc1ccc(C(=O)c2cnn(C)c2O)c(Cl)c1N=S1(=O)CCCC1C (centres unmarked) [Example 218] | 7 | 6 | 0 | 84 to 86 °C |
| COc1ccc(C(=O)c2cnn(C)c2O)c(Cl)c1N=S(C)(=O)C(C)C (centres unmarked) [Example 210] | 9 | 6 | 0 | 167 to 169 °C |
